Experimental data published in publication PMC7539012, “Hyperphosphorylated tau aggregation and cytotoxicity modulators screen identified prescription drugs linked to Alzheimer's disease and cognitive functions” (Scientific Reports, 2020).
Structures can show the parent of a compound that is named as a salt. Where two headings read alike, the source gives them in different places.

Tested on: T1, 1N4R p-tau
T1 construct: made in house; host or cells: E. coli (PIMAX system)
Assay: p-tau aggregation modulator screen of 1280-compound library (ThS fluorescence net change over 16 h);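 note: 30 µM compound with 6 µM p-tau over 16 h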
Assay type: biochemical

[1] = p-tau aggregation modulator screen of 1280-compound library, […]
[2] = p-tau aggregation modulator screen of the compound library, ThS fluorescence net change
[3] = p-tau aggregation modulator screen of 1280-compound library, ThS fluorescence net change
[4] = library screen, ThS fluorescence net change over 16 h with p-tau
[5] = 1280-compound library screen, ThS fluorescence net change over 16 h
[6] = 1280-compound library screen, […]

In the case of COc1cc2nc(N3CCN(C(=O)C4CCCO4)CC3)nc(N)c2cc1OC (centres unmarked) [Terazosin hydrochloride], the ThS net change [1] is reported as 366.
CN(C/C=C/C#CC(C)(C)C)Cc1cccc2ccccc12 [Terbinafine] gave a ThS net change [2] of 506.
CC(C)(C)NCC(O)c1cc(O)cc(O)c1.CC(C)(C)NCC(O)c1cc(O)cc(O)c1.O=S(=O)(O)O (centres unmarked) [Terbutaline hemisulfate] was tested, and the ThS net change [3] was 339.
Work on CC(C)N1CCN(c2ccc(OCC3COC(Cn4cncn4)(c4ccc(Cl)cc4Cl)O3)cc2)CC1 (centres unmarked) [Terconazole] yielded a ThS net change [4] of 326.
For CC(C)(C)c1ccc(C(O)CCCN2CCC(C(O)(c3ccccc3)c3ccccc3)CC2)cc1 (centres unmarked) [Terfenadine], the ThS net change [4] was 251.
For CCC(=O)O[C@H]1CC[C@H]2[C@@H]3CCC4=CC(=O)CC[C@]4(C)[C@H]3CC[C@]12C [Testosterone propionate], the ThS net change was 452.
Compound CCCCNc1ccc(C(=O)OCCN(C)C)cc1.Cl [Tetraca?ne hydrochloride] has a ThS net change [5] of 401.
Compound CN(C)[C@@H]1C(O)=C(C(N)=O)C(=O)[C@@]2(O)C(O)=C3C(=O)c4c(O)cccc4[C@@](C)(O)[C@H]3C[C@@H]12 [Tetracycline hydrochloride] has a ThS net change [4] of 202.
O.O=C1C(O)=C(O)C(=O)C(O)=C1O [Tetrahydroxy-1,4-quinone hydrate] gave a ThS net change [6] of 391.
For c1ccc2c(c1)CCCC2C1=NCCN1 (centres unmarked) [Tetrahydrozoline hydrochloride], the ThS net change [3] was 362.
With c1ccc(C2CN3CCSC3=N2)cc1 (centres unmarked) [Tetramisole hydrochloride] the ThS net change [3] was 368.
With O=C1CCC(N2C(=O)c3ccccc3C2=O)C(=O)N1 (centres unmarked) [Thalidomide] the ThS net change [3] was 334.
With Cn1cnc2c1c(=O)[nH]c(=O)n2C [Theobromine] the ThS net change [5] was 392.
With Cn1c(=O)c2[nH]cnc2n(C)c1=O [Theophylline monohydrate] the ThS net change [5] was 398.
Work on Cc1ncc(C[n+]2csc(CCO)c2C)c(N)n1 [Thiamine hydrochloride] yielded a ThS net change [5] of 383.
CS(=O)(=O)c1ccc([C@@H](O)[C@@H](CO)NC(=O)C(Cl)Cl)cc1 [Thiamphenicol] showed a ThS net change [5] of 380.
CCSc1ccc2c(c1)N(CCCN1CCN(C)CC1)c1ccccc1S2.O=C(O)CC(O)C(=O)O.O=C(O)CC(O)C(=O)O [Thiethylperazine dimalate] was tested, and the ThS net change [4] was 317.
For COc1c(O[C@@H]2O[C@H](CO)[C@@H](O)[C@H](O)[C@H]2O)cc2c(c1OC)-c1ccc(SC)c(=O)cc1[C@@H](NC(C)=O)CC2 [Thiocolchicoside], the ThS net change [1] was 370.
Nc1nc(=S)c2ncn([C@@H]3O[C@H](CO)[C@@H](O)[C@H]3O)c2[nH]1 [Thioguanosine] was tested, and the ThS net change [5] was 385.
Compound S=C(NC1CCCCC1)N1CCC(c2cnc[nH]2)CC1 [Thioperamide maleate] has a ThS net change [6] of 385.
In the case of CN1CCN(CCCN2c3ccccc3Sc3ccc(S(=O)(=O)N(C)C)cc32)CC1.CS(=O)(=O)O.CS(=O)(=O)O [Thioproperazine dimesylate], the ThS net change [4] is reported as 314.
For CSc1ccc2c(c1)N(CCC1CCCCN1C)c1ccccc1S2 (centres unmarked) [Thioridazine hydrochloride], the ThS net change [4] was 252.
O=C(O)CNC(=O)C(CS)Cc1ccccc1 (centres unmarked) [Thiorphan] gave a ThS net change [2] of 462.
With C=C(NC(=O)C(=C)NC(=O)c1csc(C2=N[C@@H]3c4csc(n4)[C@H]4NC(=O)c5csc(n5)[C@H]([C@](C)(O)[C@@H](C)O)NC(=O)[C@H]5CSC(=N5)/C(=C/C)NC(=O)[C@H]([C@@H](C)O)NC(=O)c5csc(n5)[C@]3(CC2)NC(=O)[C@H](C)NC(=O)C(=C)NC(=O)[C@H](C)NC(=O)[C@H]([C@@H](C)CC)N[C@@H]2C=Cc3c([C@H](C)O)cc(nc3[C@H]2O)C(=O)O[C@@H]4C)n1)C(N)=O [Thiostrepton] the ThS net change was 503.
CCCCCCCCCCCCCCCC[N+](C)(C)CCN(Cc1ccc(OC)cc1)c1ncccn1 [Thonzonium bromide] showed a ThS net change [4] of 312.
Work on N[C@@H](Cc1cc(I)c(Oc2cc(I)c(O)c(I)c2)c(I)c1)C(=O)O [Thyroxine (L)] yielded a ThS net change [4] of 301.
Compound c1ccc2[nH]c(-c3cscn3)nc2c1 [Tiabendazole] has a ThS net change [3] of 355.
CCN(CC)CCNC(=O)c1cc(S(C)(=O)=O)ccc1OC [Tiapride hydrochloride] was tested, and the ThS net change [3] was 349.
With CC(C(=O)O)c1ccc(C(=O)c2ccccc2)s1 (centres unmarked) [Tiaprofenic acid] the ThS net change [5] was 381.
Compound C#C[C@]1(O)CC[C@H]2[C@@H]3[C@H](C)CC4=C(CCC(=O)C4)[C@H]3CC[C@@]21C [Tibolone] has a ThS net change [6] of 381.
With CC1(C)S[C@@H]2[C@H](NC(=O)[C@H](C(=O)O)c3ccsc3)C(=O)N2[C@H]1C(=O)O [Ticarcillin sodium] the ThS net change [6] was 407.
CC(C)(C)NC[C@H](O)COc1nsnc1N1CCOCC1.O=C(O)/C=C\C(=O)O [Timolol maleate salt] showed a ThS net change [2] of 414.
CCS(=O)(=O)CCn1c([N+](=O)[O-])cnc1C [Tinidazole] showed a ThS net change [5] of 392.
Clc1ccc(C(Cn2ccnc2)OCc2ccsc2Cl)c(Cl)c1 (centres unmarked) [Tioconazole] was tested, and the ThS net change [4] was 309.
Work on Clc1ccc2nsnc2c1NC1=NCCN1 [Tizanidine HCl] yielded a ThS net change [5] of 386.
NC[C@H]1O[C@H](O[C@H]2[C@H](O)[C@@H](O[C@H]3O[C@H](CO)[C@@H](O)[C@H](N)[C@H]3O)[C@H](N)C[C@@H]2N)[C@H](N)C[C@@H]1O [Tobramycin] showed a ThS net change [3] of 360.
For Cc1cccc(C)c1NC(=O)C(C)N (centres unmarked) [Tocainide hydrochloride], the ThS net change [5] was 412.
With CCOC(=O)NNc1nncc2ccccc12 [Todralazine hydrochloride] the ThS net change [3] was 334.
Cc1ccc(S(=O)(=O)NC(=O)NN2CCCCCC2)cc1 [Tolazamide] gave a ThS net change [2] of 458.
c1ccc(CC2=NCCN2)cc1 [Tolazoline hydrochloride] was tested, and the ThS net change [3] was 360.
CCCCNC(=O)NS(=O)(=O)c1ccc(C)cc1 [Tolbutamide] was tested, and the ThS net change [5] was 392.
Cc1ccc(C(=O)c2cc(O)c(O)c([N+](=O)[O-])c2)cc1 [Tolcapone] gave a ThS net change [4] of 214.
Cc1c(Cl)cccc1Nc1ccccc1C(=O)O [Tolfenamic acid] showed a ThS net change [5] of 383.
Cc1ccc(C(=O)c2ccc(CC(=O)O)n2C)cc1 [Tolmetin sodium salt dihydrate] was tested, and the ThS net change [3] was 364.
Compound Cc1cccc(N(C)C(=S)Oc2ccc3ccccc3c2)c1 [Tolnaftate] has a ThS net change [4] of 219.
Cc1ccc(O)c([C@H](CCN(C(C)C)C(C)C)c2ccccc2)c1 [Tolterodine tartrate] was tested, and the ThS net change was 422.
Cc1cc(-n2c(=O)[nH]c(=O)n(C)c2=O)ccc1Oc1ccc(SC(F)(F)F)cc1 [Toltrazuril] was tested, and the ThS net change [2] was 511.
For CNCC[C@@H](Oc1ccccc1C)c1ccccc1 [Tomoxetine hydrochloride], the ThS net change [6] was 389.
In the case of CC1(C)O[C@@H]2[C@@H](CO[C@@]3(COS(N)(=O)=O)OC(C)(C)O[C@@H]23)O1 [Topiramate], the ThS net change [5] is reported as 392.
CC[C@@]1(O)C(=O)OCc2c1cc1n(c2=O)Cc2cc3c(CN(C)C)c(O)ccc3nc2-1 [Topotecan] showed a ThS net change [2] of 5499.
Compound CN(C)CCOc1ccc(/C(=C(/CCCl)c2ccccc2)c2ccccc2)cc1 [Toremifene] has a ThS net change [5] of 406.
In the case of Cc1cccc(Nc2ccncc2S(=O)(=O)NC(=O)NC(C)C)c1 [Torsemide], the ThS net change [2] is reported as 455.
For Cl.NC1CCN(c2nc3c(cc2F)c(=O)c(C(=O)O)cn3-c2ccc(F)cc2F)C1 (centres unmarked) [Tosufloxacin hydrochloride], the ThS net change [3] was 354.
CCCCNc1c(C(=O)OCC)c(C)nc2c1cnn2CC.Cl [Tracazolate hydrochloride] was tested, and the ThS net change [2] was 440.
In the case of COc1cccc([C@@]2(O)CCCC[C@@H]2CN(C)C)c1.Cl [Tramadol hydrochloride], the ThS net change [1] is reported as 373.
Compound NC[C@H]1CC[C@H](C(=O)O)CC1 [Tranexamic acid] has a ThS net change [5] of 409.
In the case of COc1ccc(/C=C/C(=O)Nc2ccccc2C(=O)O)cc1OC [Tranilast], the ThS net change [5] is reported as 392.
Work on N[C@@H]1C[C@H]1c1ccccc1 [Tranylcypromine hydrochloride] yielded a ThS net change of 377.
O=c1n(CCCN2CCN(c3cccc(Cl)c3)CC2)nc2ccccn12 [Trazodone hydrochloride] gave a ThS net change [4] of 316.
C(#CCN1CCCC1)CN1CCCC1.Cl.Cl [Tremorine dihydrochloride] was tested, and the ThS net change [6] was 391.
With C[C@]12C=CC(=O)C=C1CC[C@H]1[C@@H]3C[C@@H](O)[C@](O)(C(=O)CO)[C@@]3(C)C[C@H](O)[C@@]12F [Triamcinolone] the ThS net change [4] was 259.
In the case of Nc1nc(N)c2nc(-c3ccccc3)c(N)nc2n1 [Triamterene], the ThS net change [3] is reported as 354.
CCOC1O[C@H]([C@@H](COCc2ccccc2)OCc2ccccc2)[C@H](OCc2ccccc2)[C@H]1O (some centres unmarked) [Tribenoside] was tested, and the ThS net change [2] was 690.
COP(=O)(OC)C(O)C(Cl)(Cl)Cl (centres unmarked) [Trichlorfon] showed a ThS net change [1] of 340.
NS(=O)(=O)c1cc2c(cc1Cl)NC(C(Cl)Cl)NS2(=O)=O (centres unmarked) [Trichlormethiazide] showed a ThS net change [3] of 375.
In the case of CSc1nc2cc(Cl)c(Oc3cccc(Cl)c3Cl)cc2[nH]1 [Triclabendazole], the ThS net change [5] is reported as 382.
For Oc1cc(Cl)ccc1Oc1ccc(Cl)cc1Cl [Triclosan], the ThS net change [6] was 398.
CC[N+](CC)(CC)CCC(O)(c1ccccc1)C1CCCCC1.[Cl-] (centres unmarked) [Tridihexethyl chloride] was tested, and the ThS net change [5] was 402.
CN1CCN(CCCN2c3ccccc3Sc3ccc(C(F)(F)F)cc32)CC1 [Trifluoperazine dihydrochloride] was tested, and the ThS net change [4] was 299.
Work on CN(C)CCCN1c2ccccc2Sc2ccc(C(F)(F)F)cc21 [Triflupromazine hydrochloride] yielded a ThS net change of 280.
Work on O=c1[nH]c(=O)n([C@H]2C[C@H](O)[C@@H](CO)O2)cc1C(F)(F)F [Trifluridine] yielded a ThS net change [2] of 463.
CC(=O)Oc1cc(C(F)(F)F)ccc1C(=O)O [Triflusal] was tested, and the ThS net change [3] was 343.
In the case of CCC(COC(=O)c1cc(OC)c(OC)c(OC)c1)(c1ccccc1)N(C)C (centres unmarked) [Trimebutine], the ThS net change [6] is reported as 406.
With CC(CN(C)C)CN1c2ccccc2Sc2ccccc21.CC(CN(C)C)CN1c2ccccc2Sc2ccccc21.O=C(O)C(O)C(O)C(=O)O (centres unmarked) [Trimeprazine tartrate] the ThS net change [3] was 354.
